Experimental data published in paper PMC6757420, “Identifying the active components of Baihe–Zhimu decoction that ameliorate depressive disease by an effective integrated strategy: a systemic pharmacokinetics study combined with classical depression model tests” (Chinese Medicine, 2019).
Several values for one entry are separate records, joined by “and”; a condition that tells them apart may be missing. Equal entries are not always repeated. Structures can show the parent of a compound that is named as a salt.

How the values were obtained:
ICR mice [1] = assay: forced swimming test (FST); format: in vivo
Protocol: (§1) The antidepressant activity of the drugs was evaluated by classic behavioral measurements, such as the forced swimming test (FST) and tail suspension test (TST). All the ICR mice were randomly divided into several groups (n = 8) as follows: a control group with stimulation and different test groups subjected to FST and TST after the oral administration of different drugs for 8 days, including fluoxetine (10 mg/kg), BZD (3 g/kg), ZD (3 g/kg), Baihe decoction (BD, 3 g/kg), PZ (21.2 mg/kg), XZ (21.2 mg/kg), SZ (21.2 mg/kg), timosaponin BII (10 mg/kg) and timosaponin BIII (10 mg/kg).
(§2) The FST was performed according to a previously described method with minor modifications. Briefly, each mouse was individually placed in an open water-filled cylinder (H: 50 cm; Ø: 20 cm; water depth: 35 cm; temperature: 23–25 °C) and allowed to swim for a period of 6 min. The total time of immobility was recorded during the last 4 min of the testing duration. Immobility is defined as the mice floating in the water without movement. The TST was conducted as described in the literature. Briefly, the mice were suspended 20 cm above the floor for 6 min. The time of immobility was recorded after the first 2 min. Mice in a completely motionless state were considered immobile.

ICR mice [2] = assay: tail suspension test (TST); format: in vivo
Protocol: as §1, §2

serotonin (5-HT) = assay: content of serotonin (5-HT) by ELISA kit; format: in vivo, ICR mice; settings: Table 5; 10 mg/kg oral; control 636.2 ± 80.1
Protocol: as §1
(§3) The contents of dopamine (DA) and serotonin (5-HT) in the plasma were determined using ELISA Kits (Shanghai Jianglai Biotech Co., Ltd., Shanghai, China) according to the manufacturer’s instructions.

dopamine (DA) = assay: content of dopamine (DA) by ELISA kit; format: in vivo, ICR mice; settings: Table 5; 10 mg/kg oral; control 171.6 ± 54.5
Protocol: as §1, §3

[3] = pharmacokinetic study of five major components after oral administration of BZD (HPLC-QQQ MS); format: in vivo, Sprague–Dawley (SD) rats; settings: Sprague-Dawley, rat, in vivo, po, 15 g/kg
Protocol: The HPLC-QQQ MS method was developed according to a previous study in our group. Briefly, five compounds were simultaneously determined in plasma, liver and brain samples using a 1260 Series liquid chromatography system (Agilent Technologies, Palo Alto, CA, USA) coupled to a 6460 triple quadrupole mass spectrometer with an electrospray ionization source (Agilent Technologies, Palo Alto, CA, USA). Chromatographic separation was performed on an ACE Super C18 column (100 mm × 2.1 mm, 3.0 µm, Advanced Chromatography Technologies Ltd. Aberdeen, Scotland) at a temperature of 40 °C. The mobile phase consisted of water containing 0.1% formic acid (A) and acetonitrile containing 0.1% formic acid (B). The gradient program was performed as follows: 0–3 min, 92% A; 3.5–4.0 min, 88–60% A; 5.5–6 min, 60–55% A; 6.6–7 min, 55–5% A; 11–11.01 min, 5–92% A; 11.01–13.5 min, 92% A. The flow rate was set to 0.35 mL/min in the time range of 0–6.6 min and kept at 0.45 mL/min between 7 and 13.5 min. Five components were monitored in negative multiple reaction monitoring (MRM) mode. The parameters of the mass spectrometer were as follows: capillary voltage, 3500 V; nebulizer, 45 psi; gas temperature, 350 °C; gas flow rate, 12 L/min; sheath gas temperature, 400 °C; sheath gas flow rate, 8 L/min. MassHunter Workstation software (Agilent Technologies, Palo Alto, CA, USA) was used for system operation and data analysis.
All Sprague–Dawley (SD) rats and ICR mice were purchased from Shanghai SLAC Laboratory Animal Co., Ltd. and kept in the breeding room at 22 ± 2 °C and 50 ± 10% humidity in Shanghai Institute of Materia Medica (SIMM). The experimental protocols were approved by the Institutional Animal Care and Use Committee in SIMM. After 1 week of acclimation, all the SD rats were orally administered BZD (15 g/kg). The biological samples were collected from the rats after fasting for 12 h. After anaesthetization, the rats were dissected at 5 min, 15 min, 30 min, 1 h, 2 h, 4 h, 7 h, 10 h, 20 h and 40 h (n = 5 for each time-point). The hepatic portal vein plasma (2 mL) and the systemic plasma (6–8 mL) were subsequently harvested, and finally the liver and brain tissue samples were collected. The plasma sample were centrifuged at 9500×g for 5 min, and the tissue samples were washed with saline solution. All samples were stored at − 80 °C until analysis. The samples were prepared according to the method described in the previous study by our group.
A noncompartmental analysis was carried out using WinNonlin software (Pharsight 6.2, NC, USA) to calculate the PK parameters. The significance of the results in behavior assessment was analyzed by unpaired Student’s t-tests. A P value less than 0.05 was considered significant. The liver extraction ratio (ER) indicated the fraction of hepatic clearance and first-pass effect, and the calculation formula was as reported in a previous study by our group.

| Cmax [3] | Tmax [3] | AUC(0-t) ([3]; AUC0–t) | Cmax ([3]; Cmax) | SMILES | Immobility time (mean ± SD, s) FST (ICR mice [1]; Table 1, oral administration for 8 days, n = 8, fluoxetine 10 mg/kg, BZD, ZD, BD 3 g/kg, control 127.6 ± 40.9) | Immobility time (mean ± SD, s) FST (ICR mice [1]; Table 2, oral administration for 8 days, n = 8, fluoxetine 10 mg/kg, SZ, PZ, XZ 21.2 mg/kg, control 134.3 ± 22.1) | Immobility time (mean ± SD, s) FST (ICR mice [1]; Table 4, oral administration for 8 days, n = 8, 10 mg/kg, control 118.1 ± 24.3) | Immobility time (mean ± SD, s) TST (ICR mice [2]; Table 1, oral administration for 8 days, n = 8, fluoxetine 10 mg/kg, BZD, ZD, BD 3 g/kg, control 109.1 ± 15.5) | Immobility time (mean ± SD, s) TST (ICR mice [2]; Table 2, oral administration for 8 days, n = 8, fluoxetine 10 mg/kg, SZ, PZ, XZ 21.2 mg/kg, control 118.6 ± 18.1) | Immobility time (mean ± SD, s) TST (ICR mice [2]; Table 4, oral administration for 8 days, n = 8, 10 mg/kg, control 102.0 ± 16.9) | Content (ng/g) 5-HT (serotonin (5-HT)) | Content (ng/g) DA (dopamine (DA)) |
| --- | --- | --- | --- | --- | --- | --- | --- | --- | --- | --- | --- | --- |
|  |  |  |  | CNCCC(Oc1ccc(C(F)(F)F)cc1)c1ccccc1 (stereo not drawn) [Fluoxetine, fluoxetine hydrochloride] | 84.8 ± 15.2 s | 82.0 ± 21.3 s | 70.2 ± 21.2 s | 62.0 ± 36.2 s | 69.5 ± 21.5 s | 50.0 ± 22.2 s | 731.3 ± 104.6 ng/g | 215.9 ± 36.5 ng/g |
| 889.36 ± 191.49 ng/mL | 1.00 h | 4020 ± 397 ng·h/mL | 131 ng/g and 1760 ng/mL | O=c1c2cc(O)c(O)cc2oc2cc(O)c([C@@H]3O[C@H](CO)[C@@H](O)[C@H](O)[C@H]3O)c(O)c12 [Mangiferin, mangiferin] |  |  |  |  |  |  |  |  |
